Consider ten compounds from patent US20170368034A1, “THIOTRIAZOLE COMPOUND AND ITS USE IN PARASITIC PROTOZOAL INFECTIONS” (GlaxoSmithKline Intellectual Property Development Limited, priority 2014, published 2017).

Values after ≈ are worked out from the molar mass of the structure shown. Where two headings read alike, the source gives them in different places.

Data set [1] in a line: Equilibrium solubility assessment in biorelevant media. Particulars: thermodynamic from solid, room temperature. In kind it is physicochemical. The method, then:
Compound's equilibrium solubility was measured at 4 h room temperature in four biologically relevant fluids: Fasted State-(Simulated Intestinal Fluid (FaSSIF), Fed State Simulated IntestinalFluid (FeSSIF), Simulated Gastric Fluid (SGF) and Phosphate Buffered Saline (PBS).
Organic solvents of HPLC grade were used. Ultra pure water (Milli-Q grade) was used. Buffers were prepared with ultra pure water and filtered using 0.45 μ nylon filters.
Determination of equilibrium solubility (assuming chemical stability in the desired solvent is not a problem).
a) 1 mg of solid compound was weighted in one 4 mL glass vial and 1 mL of the corresponding medium freshly prepared (SGF, FaSSIF, FeSSIF or PBS) was added. All these samples were prepared by duplicate.
b) The samples were stirred (roller mixer) for 4 hr at room temperature. If required, additional solid compound (0.1 mg) was added to maintain excess of it (saturated solutions).
c) After 4 hours, the samples were centrifuged (10000 rpm, 10 min.) and the supernatants were transfer to an HPLC vial and analysed by LC-MS (previous dilution with mobile phase when needed).
d) The pH of the final solution in each sample was measured with a pH-meter (WTW pH330i and a pH-electrode Sentix 41).
All supernatants were analysed by LC-MS. Quantification of those samples was carried out against calibration curves obtained from 1 mg/mL DMSO (Aldrich cat. ref.: 27685-5) stock solutions, by dilution with the mobile phase used in the chromatography. Depending on the solubility range, U.V. (1 μg/mL to 100 μg/mL) or MS (1 μg/mL to 1 ng/mL) detector were used in the quantification.
The analysis of all LC-MS data was performed with MassLynx 3.4 software and Analyst 1.4.2. Statistical and graphic analysis of data was performed using Microsoft Excel. The concentration (μM) and solubility (μg/ml) for each compound was calculated using the peak areas from the sample and those from the calibration curve.

Data set [2] has as its system P. falciparum infected erythrocytes. Kind of data set: P. falciparum growth inhibition assay ([3H]hypoxanthine incorporation). In kind it is cell-based. Particulars: Plasmodium falciparum, Erythrocyte, 0.5% parasitemia (ring stage), 2% hematocrit, 48 h total incubation, read-out: PflC50. On the procedure: P. falciparum Growth Inhibition Assay. The sensitivity of P. falciparum infected erythrocytes to the compound is determined in triplicate using the [^3H]hypoxanthine incorporation method with an inoculum of 0.5% parasitemia (ring stage) and 2% hematocrit. The parasites were grown in RPMI 1640, 25 mM HEPES and supplemented with […]. Plates are incubated at 37° C., 5% CO2, 5% O2, 90% N2. After 24 h of incubation, [3H]hypoxanthine is added and plates are incubated for another 24 h. After that period, plates are harvested on a glass fiber filter using a TOMTEC Cell harvester 96. Filters are dried and melt on scintillator sheets and the bound radioactivity is quantified by use of a Wallac Microbeta Trilux (Model 1450 LS-Perkin Elmer). IC50s are determined using Grafit 5 program (Grafit program; Erithacus Software, Horley, Surrey, United Kingdom).

A further data set has as its system P. falciparum. In words: P. falciparum in vivo efficacy assay (P. falciparum mouse model). Also on record: species or system Plasmodium falciparum. Conditions: for AUCED90: area under the concentration-time curve at ED90, P. falciparum mouse model; for ED90: dose that eradicates 90 per cent of parasitemia, NOD-scid IL2R_null mice engrafted with human erythrocytes. On the procedure: P. Falciparum In Vivo Efficacy Assay.
Antimalarial in vivo efficacy was determined using the P. falciparum mouse model following the procedure described in: Jimenez-Diaz, M. B., Mulet, T., Viera, S., Gómez, V., Garuti, H., Ibañez, J., Alvarez-Doval, A., Shlutz, D. L., Martinez, A., Improved Murine Model Of Malaria Using Plasmodium falciparum (Competent Strains and Non-Myelodepleted NOD-scid IL2R_null
Mice Engrafted with Human Erythrocytes) Antimicrob. Agents Chemother 2009, 53 (10), 4533-4536

For data set [3] the following is noted: p698 and Table 2 p699; cited from earlier work.
[4] abbreviates: FaSSIF (fasted state simulated intestinal fluid), fassif, Fasted state simulated intestinal fluid, read-out: FaSSIF solubility.
Where [5] appears, read: FeSSIF (fed state simulated intestinal fluid), fessif, Fed state simulated intestinal fluid, read-out: FeSSIF solubility.
Setting [6] is: PBS (phosphate buffered saline), aqueous buffer, Phosphate buffered saline, read-out: PBS solubility.
[7] abbreviates: SGF (simulated gastric fluid), Simulated gastric fluid, read-out: SGF solubility.

Broadly, the solubility is how much of the substance goes into solution per volume. `CC(Sc1nc(-c2c(Cl)cncc2Cl)n[nH]1)C(=O)c1c[nH]c2ccccc12` (stereo not drawn) [drawing 26]: the solubility at 4 h in data set [1] (setting [4]) is 168 µg/mL (≈ 402 µM).

`Cc1[nH]c2ccccc2c1C(=O)C(C)Sc1nnc(-c2ccccc2Br)[nH]1` (stereo not drawn) [drawing 19]: the IC50 in data set [2] is 0.044 to 0.06 µM.

For the compound `CC(Sc1nc(-c2c(Cl)cncc2Cl)n[nH]1)C(=O)c1c[nH]c2ccccc12` (stereo not drawn) [drawing 20], the IC50 in data set [2] was 0.052 µM.

As to `C[C@@H](Sc1nc(-c2c(Cl)cncc2Cl)n[nH]1)C(=O)c1c[nH]c2ccccc12` [drawing 21], the IC50 in data set [2] was 0.019 to 0.053 µM.

For the compound `Cc1[nH]c2ccccc2c1C(=O)C(C)Sc1nnc(-c2ccccc2Br)[nH]1` (stereo not drawn) [drawing 25], the solubility at 4 h was 37 µg/mL (≈ 83.8 µM) in data set [1] (setting [4]), 181 µg/mL (≈ 410 µM) in data set [1] (setting [5]), under 0.1 µg/mL in data set [1] (setting [6]) and under 0.1 µg/mL in data set [1] (setting [7]).

On to `O=C(CSc1nc(-c2ccncc2)n[nH]1)c1c[nH]c2ccccc12` [drawing 18], for which the IC50 in data set [2] is over 5 µM.

In the data set on P. falciparum, `Cc1[nH]c2ccccc2c1C(=O)C(C)Sc1nnc(-c2ccccc2Br)[nH]1` (stereo not drawn) [drawing 22] gave an AUCED90 of under 0.05 μg.h.ml-1day-1 and an ED90 of 7.31 mg/kg.

For the compound `C[C@@H](Sc1nc(-c2c(Cl)cncc2Cl)n[nH]1)C(=O)c1c[nH]c2ccccc12` [drawing 27], the solubility at 4 h is 216 µg/mL (≈ 516 µM) in data set [1] (setting [4]), 578 to 675 µg/mL (≈ 1380 to 1610 µM) in data set [1] (setting [5]), 169 to 289 µg/mL (≈ 404 to 691 µM) in data set [1] (setting [6]) and 15 to 76 µg/mL (≈ 35.9 to 182 µM) in data set [1] (setting [7]).

In the data set on P. falciparum, `C[C@@H](Sc1nc(-c2c(Cl)cncc2Cl)n[nH]1)C(=O)c1c[nH]c2ccccc12` [drawing 24] registered an AUCED90 of 0.17 μg.h.ml-1day-1 and an ED90 of 2.2 mg/kg.

As for `O=C(CSc1nc(-c2ccncc2)n[nH]1)c1c[nH]c2ccccc12` [Compound 32], in data set [3], the “activity in the assays of Shah et al.” value is “inactive”.
